In BindingDB's records for doi:10.7270/Q2CV4GM1 (D3R/Abbott, 2015):
Values joined by “and” are separate entries in the source; they are usually repeats but may differ in a detail not shown here. Identical values can stand only once.

Molecular target: T1, Tyrosine-protein kinase SYK [355-635] (Homo sapiens, UniProt P43405)
T1 construct: 355-635
Assay: SYK assay_HTRF

| IC50 | SMILES |
| --- | --- |
| 793 nM | CC(=O)N(C)c1ccc(Nc2nccc(Nc3cccc4[nH]ncc34)n2)cc1 [GTC000175A] |
| 65.5 nM and 211 nM and 194 nM and 162 nM and 72.9 nM | NS(=O)(=O)c1ccc(Nc2nccc(Nc3cccc4[nH]ncc34)n2)cc1 [GTC000181A] |
| 1100 nM | O=S(=O)(O)c1cccc(Nc2nccc(Nc3cccc4[nH]ncc34)n2)c1 [GTC000190A] |
| 575 nM | O=S(=O)(Cc1cccc(Nc2nccc(Nc3cccc4[nH]ncc34)n2)c1)NCCCO [GTC000193A] |
| 426 nM | CNS(=O)(=O)Cc1ccc(Nc2nccc(Nc3cccc4[nH]ncc34)n2)cc1 [GTC000195A] |
| 299 nM | CNC(=O)COc1ccc(Nc2nccc(Nc3cccc4[nH]ncc34)n2)cc1 [GTC000197A] |
| 326 nM | O=C(O)COc1ccc(Nc2nccc(Nc3cccc4[nH]ncc34)n2)cc1 [GTC000198A] |
| 746 nM | O=S(=O)(Cc1ccc(Nc2nccc(Nc3cccc4[nH]ncc34)n2)cc1)NCCCO [GTC000203A] |
| 232 nM | CS(=O)(=O)Cc1ccc(Nc2nccc(Nc3cccc4[nH]ncc34)n2)cc1 [GTC000207A] |
| 100 nM and 72.8 nM and 258 nM and 524 nM | O=C(O)c1ccc(Nc2nccc(Nc3cccc4[nH]ncc34)n2)cc1 [GTC000210A] |
| 414 nM | CS(=O)(=O)Nc1ccc(Nc2nccc(Nc3cccc4[nH]ncc34)n2)cc1 [GTC000217A] |
| 164 nM and 78.2 nM and 235 nM | c1cc(Nc2ccnc(Nc3ccc4[nH]ncc4c3)n2)c2cn[nH]c2c1 [GTC000221A] |
| 12.7 nM and 15.6 nM and 9.33 nM | CCN(c1nc(Nc2ccc3c(c2)S(=O)(=O)NC3)ncc1Cl)c1cccc2[nH]ncc12 [GTC000222A] |
| 3.45 nM | O=S1(=O)NCc2ccc(Nc3nccc(N(CCO)c4cccc5[nH]ncc45)n3)cc21 [GTC000223A] |
| 11.1 nM | Cc1ncoc1-c1cccc(Nc2nccc(N(CCCO)c3cccc4[nH]ncc34)n2)c1 [GTC000224A] |
| 20.6 nM and 18.5 nM | Cn1ncc2cc(Nc3nccc(N(CCCO)c4cccc5[nH]ncc45)n3)ccc21 [GTC000225A] |
| 0.412 nM and 0.746 nM and 2.23 nM and 3.35 nM and 0.925 nM and 2.21 nM and 3.52 nM and 3.44 nM | O=S1(=O)NCc2ccc(Nc3nccc(N(CCCO)c4cccc5[nH]ncc45)n3)cc21 [GTC000226B] |
| 0.857 nM and 0.75 nM and 3.63 nM | NCCCN(c1ccnc(Nc2ccc3c(c2)S(=O)(=O)NC3)n1)c1cccc2[nH]ncc12 [GTC000227A] |
| 2.45 nM and 1.1 nM and 2.07 nM and 1.38 nM and 3.35 nM and 1.47 nM and 2.08 nM and 7 nM and 4.35 nM and 2.02 nM and 5.36 nM and 2 nM and 3.66 nM and 2.13 nM and 2.86 nM | COCCCN(c1nc(Nc2ccc3c(c2)S(=O)(=O)NC3)ncc1F)c1cccc2[nH]ncc12 [GTC000228C] |
| 1.41 nM and 1.19 nM and 2.47 nM | O=C(O)CCCCN(c1ccnc(Nc2ccc3c(c2)S(=O)(=O)NC3)n1)c1cccc2[nH]ncc12 [GTC000229A] |
| 1.46 nM | O=S1(=O)NCc2ccc(Nc3ncc(F)c(N(CCCO)c4cccc5[nH]ncc45)n3)cc21 [GTC000230A] |
| 1.42 nM | CC(=O)NCCCCN(c1ccnc(Nc2ccc3[nH]c(=O)[nH]c3c2)n1)c1cccc2[nH]ncc12 [GTC000231A] |
| 2.05 nM | OCCN(c1ccnc(Nc2ccc3nn[nH]c3c2)n1)c1cccc2[nH]ncc12 [GTC000232A] |

| IC50 | SMILES |
| --- | --- |
| 4.79 nM and 2.46 nM and 1.87 nM | Cc1nn(CCCO)c2cc(Nc3ncc(F)c(N(CCCO)c4cccc5[nH]ncc45)n3)ccc12 [GTC000234A] |
| 9.64 nM and 1.94 nM and 1.64 nM | O=S1(=O)CCc2ccc(Nc3ncc(F)c(N(CCCCO)c4cccc5[nH]ncc45)n3)cc21 [GTC000235A] |
| 2.69 nM and 1.48 nM and 4.88 nM and 4.34 nM | COCCCN(c1ccnc(Nc2ccc3c(c2)S(=O)(=O)NC3)n1)c1cccc2[nH]ncc12 [GTC000236A] |
| 1.87 nM and 6.87 nM and 3.76 nM and 3.14 nM and 8.63 nM and 2.75 nM | CCN(c1nc(Nc2ccc3[nH]c(=O)[nH]c3c2)ncc1F)c1cccc2[nH]ncc12 [GTC000237B] |
| 2.92 nM | COCCCN(c1ccnc(Nc2ccc3c(c2)COC(=O)N3)n1)c1cccc2[nH]ncc12 [GTC000238A] |
| 3.16 nM | CS(=O)(=O)NCCCN(c1ccnc(Nc2ccc3[nH]c(=O)[nH]c3c2)n1)c1cccc2[nH]ncc12 [GTC000239A] |
| 3.21 nM and 19 nM and 19.8 nM and 17.2 nM | CCN(c1nc(Nc2cccc(S(N)(=O)=O)c2)ncc1F)c1cccc2[nH]ncc12 [GTC000240B] |
| 2.9 nM | O=S1(=O)NCc2ccc(Nc3nccc(N(CCCCO)c4cccc5[nH]ncc45)n3)cc21 [GTC000241A] |
| 3.61 nM and 9.62 nM and 1.58 nM and 2.77 nM and 3.88 nM | CCN(c1nc(Nc2ccc3c(C)nn(CCCO)c3c2)ncc1F)c1cccc2[nH]ncc12 [GTC000242A] |
| 4.09 nM and 3.13 nM and 3.56 nM and 9.55 nM and 5 nM and 4.1 nM and 3.04 nM and 3.52 nM and 5.97 nM | CCCN(c1nc(Nc2ccc3c(c2)S(=O)(=O)NC3)ncc1F)c1cccc2[nH]ncc12 [GTC000243A] |
| 3 nM and 3.31 nM and 5.53 nM | NCCCCCN(c1ccnc(Nc2ccc3c(c2)S(=O)(=O)NC3)n1)c1cccc2[nH]ncc12 [GTC000244A] |
| 3.88 nM | O=C(O)CCCN(c1ccnc(Nc2ccc3c(c2)S(=O)(=O)NC3)n1)c1cccc2[nH]ncc12 [GTC000245A] |
| 3.6 nM | COCCCN(c1ccnc(Nc2ccc3[nH]c(=O)[nH]c3c2)n1)c1cccc2[nH]ncc12 [GTC000246A] |
| 4.25 nM | CCN(c1nc(Nc2ccc3cn[nH]c3c2)ncc1F)c1cccc2[nH]ncc12 [GTC000247A] |
| 3.9 nM | CN(c1nc(Nc2ccc3c(c2)COC(=O)N3)ncc1F)c1cccc2[nH]ncc12 [GTC000248A] |
| 11.6 nM and 1.99 nM | CN(c1nc(Nc2ccc3c(c2)S(=O)(=O)NC3)ncc1F)c1cccc2[nH]ncc12 [GTC000249A] |
| 2.81 nM and 3.59 nM and 14.9 nM and 5.77 nM | CCN(c1nc(Nc2ccc3cnn(CCCO)c3c2)ncc1F)c1cccc2[nH]ncc12 [GTC000250A] |
| 6.11 nM and 4.06 nM and 3.67 nM | O=S1(=O)CCc2ccc(Nc3ncc(F)c(N(CCCO)c4cccc5[nH]ncc45)n3)cc21 [GTC000251A] |
| 4.94 nM | NCCCN(c1nc(Nc2ccc3c(c2)S(=O)(=O)CC3)ncc1F)c1cccc2[nH]ncc12 [GTC000252A] |
| 5.19 nM | O=S1(=O)NCc2ccc(Nc3ncc(F)c(N(CC4CCOC4)c4cccc5[nH]ncc45)n3)cc21 (stereo unspecified) [GTC000253A] |
| 4.75 nM | O=S1(=O)CCc2ccc(Nc3ncc(F)c(N(CCO)c4cccc5[nH]ncc45)n3)cc21 [GTC000254A] |
| 4.63 nM | CCN(c1nc(Nc2ccc3cnn(C)c3c2)ncc1F)c1cccc2[nH]ncc12 [GTC000255A] |

Second part, the molecule before the results:

| SMILES | IC50 |
| --- | --- |
| COC(=O)c1ccc(Nc2nccc(Nc3cccc4[nH]ncc34)n2)cc1 [GTC000174A] | 175 nM and 209 nM |
| CC(C)(C)c1ccc(Nc2nccc(Nc3cccc4[nH]ncc34)n2)cc1 [GTC000176A] | 508 nM |
| Cc1cc(=O)[nH]c2c(C)cc(Nc3nccc(Nc4cccc5[nH]ncc45)n3)cc12 [GTC000177A] | 13.9 nM and 43.1 nM and 35.4 nM and 19.6 nM |
| CC(C)ONS(=O)(=O)c1cccc(Nc2nccc(Nc3cccc4[nH]ncc34)n2)c1 [GTC000178A] | 685 nM |
| O=S(=O)(c1cccc(Nc2nccc(Nc3cccc4[nH]ncc34)n2)c1)N1CCCCC1 [GTC000179A] | 4160 nM |
| CONS(=O)(=O)c1ccc(Nc2nccc(Nc3cccc4[nH]ncc34)n2)cc1 [GTC000180A] | 200 nM and 276 nM |
| O=C(Nc1ccccc1)c1ccc(Nc2nccc(Nc3cccc4[nH]ncc34)n2)cc1 [GTC000182A] | 433 nM and 398 nM |
| Cc1ccc(NC(=O)c2ccc(Nc3nccc(Nc4cccc5[nH]ncc45)n3)cc2)cc1 [GTC000183A] | 546 nM and 618 nM |
| CNS(=O)(=O)c1ccc(Nc2nccc(Nc3cccc4[nH]ncc34)n2)cc1 [GTC000184A] | 493 nM and 443 nM and 161 nM |
| CN1CCN(C(=O)c2ccc(Nc3nccc(Nc4cccc5[nH]ncc45)n3)cc2)CC1 [GTC000185A] | 4190 nM |
| O=S(=O)(Nc1nccs1)c1ccc(Nc2nccc(Nc3cccc4[nH]ncc34)n2)cc1 [GTC000186A] | 615 nM and 427 nM |
| Cc1noc(NS(=O)(=O)c2ccc(Nc3nccc(Nc4cccc5[nH]ncc45)n3)cc2)c1C [GTC000187A] | 1380 nM and 971 nM |
| O=S(=O)(c1ccc(Nc2nccc(Nc3cccc4[nH]ncc34)n2)cc1)N1CCCC1 [GTC000188A] | 1800 nM and 1340 nM |
| Cc1cc(NS(=O)(=O)c2ccc(Nc3nccc(Nc4cccc5[nH]ncc45)n3)cc2)no1 [GTC000189A] | 741 nM and 942 nM and 582 nM |
| O=S(=O)(Nc1ccccn1)c1ccc(Nc2nccc(Nc3cccc4[nH]ncc34)n2)cc1 [GTC000191A] | 673 nM and 571 nM |
| O=C(COc1ccc(Nc2nccc(Nc3cccc4[nH]ncc34)n2)cc1)NCCCO [GTC000192A] | 611 nM |
| CC(C)(C)OC(=O)COc1ccc(Nc2nccc(Nc3cccc4[nH]ncc34)n2)cc1 [GTC000194A] | 1180 nM and 1960 nM and 1640 nM |
| NC(=O)COc1ccc(Nc2nccc(Nc3cccc4[nH]ncc34)n2)cc1 [GTC000196A] | 227 nM |

| SMILES | IC50 |
| --- | --- |
| COC(=O)COc1ccc(Nc2nccc(Nc3cccc4[nH]ncc34)n2)cc1 [GTC000199A] | 490 nM |
| Cc1noc(NS(=O)(=O)Cc2ccc(Nc3nccc(Nc4cccc5[nH]ncc45)n3)cc2)c1C [GTC000200A] | 887 nM and 1810 nM |
| Cc1nc(NS(=O)(=O)Cc2ccc(Nc3nccc(Nc4cccc5[nH]ncc45)n3)cc2)sc1C [GTC000201A] | 1100 nM |
| O=C1CCCN1CCCNS(=O)(=O)Cc1ccc(Nc2nccc(Nc3cccc4[nH]ncc34)n2)cc1 [GTC000202A] | 706 nM |
| O=C(COc1ccc(Nc2nccc(Nc3cccc4[nH]ncc34)n2)cc1)NCCCN1CCCC1=O [GTC000204A] | 2070 nM |
| Cc1noc(NC(=O)Cc2ccc(Nc3nccc(Nc4cccc5[nH]ncc45)n3)cc2)c1C [GTC000205A] | 925 nM |
| Cc1cc(NC(=O)Cc2ccc(Nc3nccc(Nc4cccc5[nH]ncc45)n3)cc2)no1 [GTC000206A] | 640 nM |
| COc1ccc(NC(=O)Cc2ccc(Nc3nccc(Nc4cccc5[nH]ncc45)n3)cc2)cc1 [GTC000208A] | 849 nM |
| COc1cccc(NC(=O)Cc2ccc(Nc3nccc(Nc4cccc5[nH]ncc45)n3)cc2)c1 [GTC000209A] | 524 nM |
| O=C(Cc1ccc(Nc2nccc(Nc3cccc4[nH]ncc34)n2)cc1)Nc1ccc(C(F)(F)F)cc1 [GTC000211A] | 2930 nM |
| O=C(Cc1ccc(Nc2nccc(Nc3cccc4[nH]ncc34)n2)cc1)Nc1cccc(C(F)(F)F)c1 [GTC000212A] | 1040 nM |
| O=C(Cc1ccc(Nc2nccc(Nc3cccc4[nH]ncc34)n2)cc1)Nc1cccc(Cl)c1 [GTC000213A] | 1390 nM |
| O=C(Cc1ccc(Nc2nccc(Nc3cccc4[nH]ncc34)n2)cc1)Nc1ccc(Cl)cc1 [GTC000214A] | 1400 nM |
| Cc1nc(NC(=O)Cc2ccc(Nc3nccc(Nc4cccc5[nH]ncc45)n3)cc2)sc1C [GTC000215A] | 676 nM |
| O=C(Cc1ccc(Nc2nccc(Nc3cccc4[nH]ncc34)n2)cc1)Nc1ccncc1 [GTC000216A] | 828 nM |
| CNC(=O)Cc1ccc(Nc2nccc(Nc3cccc4[nH]ncc34)n2)cc1 [GTC000218A] | 1260 nM |
| O=C(Cc1ccc(Nc2nccc(Nc3cccc4[nH]ncc34)n2)cc1)Nc1cccnc1 [GTC000219A] | 543 nM |
| Cc1ccc(S(=O)(=O)Nc2ccc(Nc3nccc(Nc4cccc5[nH]ncc45)n3)cc2)cc1 [GTC000220A] | 916 nM |
